Patent US20170354148A1, “SAFENED HERBICIDAL COMPOSITIONS CONTAINING HALAUXIFEN AND METHODS OF USE THEREOF IN BRASSICA SPECIES” (Dow AgroSciences LLC, priority 2016, published 2017)

Key:
Conditions in all cases: in vivo
[1] = tested on: rutabaga (Brassica napus var. napobrassica, BRSNA)
[2] = tested on: kale/Chinese kale (Brassica alboglabra, BRSAG)
[3] = tested on: winter oilseed rape (Brassica napus, BRSNW)
[4] = tested on: Roundup Ready® canola (Brassica napus, RR-BRSNN)
[5] = tested on: Nexera™ canola (Brassica napus, BRSNN-NEX)
[6] = tested on: turnip or Polish canola (Brassica rapa, BRSRR)

Measured: % Visual Injury Obs

NCCO.O=C(O)c1nc(Cl)ccc1Cl [Clopyralidolamine]
0%: all assays above
